The values that follow come from patent publication US12006321B2, “Substituted pyrazolo[1,5-a]pyrimidines as apelin receptor agonists” (Sanford Burnham Prebys Medical Discovery Institute, priority 2017, dated 2024).

The target in this experiment is T1, human apelin receptor (APJ, APLNR) (Homo sapiens, UniProt P35414).
T1 construct: host or cells: Chinese hamster ovary (CHO) cells, stably integrated receptor
T1 sequence (P35414 1-380): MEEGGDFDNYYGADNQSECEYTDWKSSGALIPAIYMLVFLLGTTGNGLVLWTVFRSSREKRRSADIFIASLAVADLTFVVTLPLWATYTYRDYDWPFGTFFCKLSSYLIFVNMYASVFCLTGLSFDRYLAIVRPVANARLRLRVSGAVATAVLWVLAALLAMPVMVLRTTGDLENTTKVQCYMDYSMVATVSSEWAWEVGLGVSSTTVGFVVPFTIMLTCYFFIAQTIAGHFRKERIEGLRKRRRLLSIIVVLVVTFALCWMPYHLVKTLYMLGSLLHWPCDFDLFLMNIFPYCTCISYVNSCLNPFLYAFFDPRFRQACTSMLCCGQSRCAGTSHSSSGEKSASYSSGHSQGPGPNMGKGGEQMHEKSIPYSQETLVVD
Kind of experiment: cell-based cAMP assay (TR-FRET) in Chinese hamster ovary cells expressing the apelin receptor. The settings on record: EC50 = 50% of control (apelin-13, 1 nM) response; cAMP in CHO cells, 0.5 h incubation; read-out: Potency Category. On the procedure: This example illustrates the biological activity of various compounds tested against the APJ receptor.
Commercially available cell lines were used to screen chemical libraries to identify compounds that potently and selectively activated the human apelin receptor. The assays disclosed herein were performed using cell lines from DiscoveX, Inc.
Biological activity was determined to the cell-based assay. This assay detects activation of the receptor by reporting on intracellular cyclic adenosine monophosphate (cAMP) level. Chinese hamster ovary cells engineered to express the stably integrated human appellant receptor (APJ, AGTRL-one, APLNR), pleaded into the wells of the microtiter plate. Cells were stimulated with […] to increase intracellular cyclic AMP. Immediately following, compounds were added to the range of final concentrations 0.0-100 μM, in DMSO (not to exceed a final DMSO concentration greater than 1% v/v), and allowed to incubate with the cells for 0.5 h. At the end of the incubation, cells were lysed to stop APJ signaling and cAMP was quantified using a commercially available competitive immunoassay kit that applies homogenous time-resolved florescence energy transfer (TR-FRET). The assay is based on the competition between a europium (Eu) chelate-labeled cAMP donor tracer and cellular cAMP for binding sites on a cAMP-specific monoclonal antibody labeled with an acceptor fluorophore. When antibodies are bound to the cAMP tracer light emissions at 320 nm stimulate the energy transfer from the donor to the acceptor, which in turn emits light at 665 nm. In the presence of competitive unlabeled cAMP (derived from the activity of the receptor or forskolin-stimulated production of cAMP), the labelled cAMP tracer is dissociated from the cAMP antibody, resulting in a loss of FRET signal. The amount of light emitted by the FRET is inversely proportional to the cAMP generated by the cell/receptor system. Potency and efficacy at APJ are reported in reference to the canonical APJ receptor agonist apelin-13 when tested at 1 nM.
Compound competency is reported as the effective concentration required to effect 50% (EC 50) of the control (apelin—13, 1 nM) response in micromole are (μM) units. Compound efficacy (% response) is reported as a percentage of the maximal apein-13 response at 1 nM (control). Potencies were calculated by fitting a four-point logistic curve to concentration response consisting of at least 10 discrete data points spanning effective range of the compounds in the cell-based assay that measures cAMP. In Table 1, the Potency Categories are A, B, C and D. Category A EC50>500 nM; Category B 200<EC50<500 nM; Category C 100<EC50<200 nM; Category D<100 nM.
Regarding `Cc1cccc(C(=O)O)c1-c1c(C)nn2c(C(C)C)cc(C(=O)O)nc12` [Compound 85, 3-(2-carboxy-6-methylphenyl)-2-methyl-7-(methylethyl)-8-hydropyrazolo[1,5-a]pyrimidine-5-carboxylic acid], the EC50 is above 500 nM.

On to `CCOC(=O)c1cc(C(C)C)n2nc(CO)c(-c3c(C)cccc3C)c2n1` [Compound 86, ethyl 3-(2,6-dimethylphenyl)-2-(hydroxymethyl)-7-(methylethyl)-8-hydropyrazolo[1,5-a]pyrimidine-5-carboxylate], for which the EC50 is above 500 nM. In the case of `CCOC(=O)c1cccc(C)c1-c1c(C)nn2c(C(C)C)cc(C(=O)O)nc12` [Compound 77, 3-[6-(ethoxycarbonyl)-2-methylphenyl]-2-methyl-7-(methylethyl)-8-hydropyrazolo[1,5-a]pyrimidine-5-carboxylic acid], the EC50 was in the range of 100 to 200 nM.

With `CCc1nn2c(C(C)C)cc(C(=O)O)nc2c1-c1c(C)cccc1C` [Compound 74, 3-(2,6-dimethylphenyl)-2-ethyl-7-(methylethyl)-8-hydropyrazolo[1,5-a]pyrimidine-5-carboxylic acid], the EC50 was above 500 nM.

Consider `CCOC(=O)c1cc(N2CCN(C)CC2)n2nc(C)c(-c3c(C)cccc3C)c2n1` [Compound 108, ethyl 3-(2,6-dimethylphenyl)-2-methyl-7-(4-methylpiperazinyl)-8-hydropyrazolo[1,5-a]pyrimidine-5-carboxylate], for which the EC50 was above 500 nM. For `Cc1nn2c(C(C)C)c(C)c(C(=O)O)nc2c1-c1ccccc1` [Compound 38, 2,6-dimethyl-7-(methylethyl)-3-phenyl-8-hydropyrazolo[1,5-a]pyrimidine-5-carboxylic acid], the EC50 is above 500 nM. Regarding `CCOC(=O)c1cc(C)n2nc(C)c(-c3c(C)cccc3C)c2n1` [Compound 56, ethyl 3-(2,6-dimethylphenyl)-2,7-dimethyl-8-hydropyrazolo[1,5-a]pyrimidine-5-carboxylate], the EC50 is above 500 nM. For `COc1cccc(-c2c(C)nn3c(C(C)C)cc(C(=O)O)nc23)c1` [Compound 22, 3-(3-methoxyphenyl)-2-methyl-7-(methylethyl)-8-hydropyrazolo[1,5-a]pyrimidine-5-carboxylic acid], the EC50 was above 500 nM. With `CC(=O)Nc1cc(C(C)C)n2nc(C)c(-c3c(C)cccc3C)c2n1` [Compound 111, N-[3-(2,6-dimethylphenyl)-2-methyl-7-(methylethyl)-8-hydropyrazolo[1,5-a]pyrimidin-5-yl]acetamide], the EC50 was above 500 nM. In the case of `CCOC(=O)c1cc(C(C)C)n2nc(C)c(-c3c(C)cc(F)cc3C)c2n1` [Compound 47, ethyl 3-(4-fluoro-2,6-dimethylphenyl)-2-methyl-7-(methylethyl)-8-hydropyrazolo[1,5-a]pyrimidine-5-carboxylate], the EC50 was above 500 nM. The result for `CCOC(=O)c1cc(C(C)C)n2nc(C)c(-c3cccc(C)c3)c2n1` [Compound 27, ethyl 2-methyl-7-(methylethyl)-3-(3-methylphenyl)-8-hydropyrazolo[1,5-a]pyrimidine-5-carboxylate] reads above 500 nM; that for `CNC(=O)c1cc(C(C)C)n2nc(C)c(-c3ccccc3)c2n1` [Compound 15, N-methyl[2-methyl-7-(methylethyl)-3-phenyl(8-hydropyrazolo[1,5-a]pyrimidin-5-yl)]carboxamide], above 500 nM; that for `CC(C)c1cc(C(=O)O)nc2c(-c3ccccc3)c(C3CC3)nn12` [Compound 12, 2-cyclopropyl-7-(methylethyl)-3-phenyl-8-hydropyrazolo[1,5-a]pyrimidine-5-carboxylic acid], above 500 nM.

For the molecule `Cc1nn2c(C(C)C)cc(C(=O)O)nc2c1-c1ccccc1Cl` [Compound 21, 3-(2-chlorophenyl)-2-methyl-7-(methylethyl)-8-hydropyrazolo[1,5-a]pyrimidine-5-carboxylic acid], the EC50 is above 500 nM. As for `COCc1nn2c(C(C)C)cc(C(=O)O)nc2c1-c1c(C)cccc1C` [Compound 89, 3-(2,6-dimethylphenyl)-2-(methoxymethyl)-7-(methylethyl)-8-hydropyrazolo[1,5-a]pyrimidine-5-carboxylic acid], the EC50 is above 500 nM. For `Cc1nn2c(C(C)C)cc(C(=O)O)nc2c1-c1c(Cl)cccc1Cl` [Compound 115, 3-(2,6-dichlorophenyl)-2-methyl-7-(methylethyl)-8-hydropyrazolo[1,5-a]pyrimidine-5-carboxylic acid], the EC50 was above 500 nM.

Consider `COC(=O)c1cc(Nc2ccc(F)cc2)n2nc(C)c(-c3c(C)cccc3C)c2n1` [Compound 132, methyl 3-(2,6-dimethylphenyl)-7-[(4-fluorophenyl)amino]-2-methyl-8-hydropyrazolo[1,5-a]pyrimidine-5-carboxylate], for which the EC50 was above 500 nM.

For the molecule `CCOC(=O)c1cc(CC)n2nc(C)c(-c3ccccc3)c2n1` [Compound 33, ethyl 7-ethyl-2-methyl-3-phenyl-8-hydropyrazolo[1,5-a]pyrimidine-5-carboxylate], the EC50 is above 500 nM. As for `COc1cccc(F)c1-c1c(C)nn2c(C(C)C)cc(C(=O)O)nc12` [Compound 92, 3-(6-fluoro-2-methoxyphenyl)-2-methyl-7-(methylethyl)-8-hydropyrazolo[1,5-a]pyrimidine-5-carboxylic acid], the EC50 was above 500 nM.

With `CCc1cc(C(=O)O)nc2c(-c3ccccc3)c(C)nn12` [Compound 34, 7-ethyl-2-methyl-3-phenyl-8-hydropyrazolo[1,5-a]pyrimidine-5-carboxylic acid], the EC50 is above 500 nM. For `Cc1nn2c(C(C)C)cc(C(=O)O)nc2c1-c1c(F)cccc1F` [Compound 104, 3-(2,6-difluorophenyl)-2-methyl-7-(methylethyl)-8-hydropyrazolo[1,5-a]pyrimidine-5-carboxylic acid], the EC50 was above 500 nM.

In the case of `CCOC(=O)c1cc(C(C)C)n2nc(C)c(-c3c(C)cccc3F)c2n1` [Compound 49, ethyl 3-(6-fluoro-2-methylphenyl)-2-methyl-7-(methylethyl)-8-hydropyrazolo[1,5-a]pyrimidine-5-carboxylate], the EC50 is above 500 nM. Take `Cc1cccc(C)c1-c1c(C)nn2c(C(C)C)cc(CO)nc12` [Compound 62, [3-(2,6-dimethylphenyl)-2-methyl-7-(methylethyl)-8-hydropyrazolo[1,5-a]pyrimidin-5-yl]methan-1-ol]: the EC50 was above 500 nM.

With `CCOC(=O)c1cc(C2CCCC2)n2nc(C)c(-c3c(C)cccc3C)c2n1` [Compound 69, ethyl 3-(2,6-dimethylphenyl)-7-cyclopentyl-2-methyl-8-hydropyrazolo[1,5-a]pyrimidine-5-carboxylate], the EC50 is above 500 nM.

For the molecule `COC(=O)c1cc(Nc2ccc(Cl)cc2)n2nc(C)c(-c3c(C)cccc3C)c2n1` [Compound 133, methyl 3-(2,6-dimethylphenyl)-7-[(4-chlorophenyl)amino]-2-methyl-8-hydropyrazolo[1,5-a]pyrimidine-5-carboxylate], the EC50 was above 500 nM. Consider `Cc1ccc(-c2c(C)nn3c(C(C)C)cc(C(=O)O)nc23)cc1` [Compound 5, 2-methyl-7-(methylethyl)-3-(4-methylphenyl)-8-hydropyrazolo[1,5-a]pyrimidine-5-carboxylic acid], for which the EC50 is above 500 nM. As for `CCOC(=O)c1cc(C2CC2)n2nc(C)c(-c3c(C)cccc3C)c2n1` [Compound 59, ethyl 3-(2,6-dimethylphenyl)-7-cyclopropyl-2-methyl-8-hydropyrazolo[1,5-a]pyrimidine-5-carboxylate], the EC50 was above 500 nM. On to `CCOC(=O)c1cc(C(C)C)n2nc(C)c(-c3cccc(OC)c3)c2n1` [Compound 18, ethyl 3-(3-methoxyphenyl)-2-methyl-7-(methylethyl)-8-hydropyrazolo[1,5-a]pyrimidine-5-carboxylate], for which the EC50 is above 500 nM.
